{"source": "paper PMC6474902", "about": "“Examination of novel 4-aminoquinoline derivatives designed and synthesized by a hybrid pharmacophore approach to enhance their anticancer activities” (Scientific Reports, 2019)", "format_in_all_cases": "cell-based, human", "key": {"HeLa S3 cells": {"tested_on": "HeLa S3 cells", "assay": "Mitotic spindle/centrosome morphology by confocal microscopy", "details": "5 μM, 6 h after nocodazole synchronization", "text": "To gain further insight into the cellular mechanism involved in the cell cycle arrest, we examined cell morphology in the context of mitotic progress. […] Many of these cells are apparently arrested at the spindle checkpoint stage. Even those cells undergo cell division (probably after prolonged arrest) often segregated with uneven cell sizes (arrows in Fig. 6a).\nFigure 6 Compound 13 causes the formation of multiple spindle poles and uneven segregation. (a) HeLa S3 cells were synchronized at G2/M by nocodazole, followed by incubation for 6 h in drug-free medium in the absence (Sham control) or presence of 5 μM of compound 13. Note the presence of uneven cell sizes (arrows) which were likely generated as a result of nondisjuctional chromosome segregation during mitosis. […] In contrast, the untreated control sample contains very few cells with abnormal spindles.\nAll immunocytochemistry experiments were visualized by confocal microscopy using a Zeiss 510 Meta laser scanning microscope (Carl Zeiss) equipped with a 63× objective lens. Three lasers were utilized for excitation with the following band pass filter settings used for detection: Argon 488 nm (band pass 505–530), HeNe 543 nm (long pass 560) and 633 nm (long pass 650). All images were captured and analyzed using LSM 510 software included with the microscope (LSM Image Examiner, Carl Zeiss)."}, "MCF7 cells": {"tested_on": "MCF7 cells", "assay": "Cell killing by flow cytometry, asynchronous cells", "details": "2.7 μM, 48 h", "protocol": "Asynchronous MCF7 cells were incubated for 48 h in the absence (Sham control) or presence of compound 13 at 2.7 or 8.0 µM.\nCells (2.0 × 10^6) were harvested by centrifugation at 1,000 rpm on a bench-top centrifuge for 5 min, followed by fixation with ice-cold ethanol (70%) for 30 min to overnight at −20 °C[13]. The ethanol was then removed by centrifugation, and cells were resuspended in 1 × PBS solution, followed by centrifuge. The cell pellet was than stained with propidium iodide (PI) master mix (100 μg/mL RNase A, 100 μg/mL PI, 0.3% Nonidet P-40 and 0.1% sodium citrate in distilled water) for 30 min at 37 °C. DNA content was measured using a Beckmann Coulter Cytomics FC500 (Beckman Coulter, Fullerton, CA), and the proportion of cell populations in G0/G1, S, and G2/M phases of cell cycle was calculated on the basis of DNA distribution histograms using CXP software."}, "184B5": {"tested_on": "184B5", "assay": "SRB antiproliferative/antigrowth assay, non-cancer cells", "details": "Homo sapiens, 184B5, 48 h, read-out: GI50 184B5", "in_short": "(§1)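 Cells seeded 24 h before exposure to seven concentrations (100 µM to 0.0064 µM) for 48 h at 37 °C. Growth by TCA fixation and SRB staining, absorbance 515–564 nm, relative to time-zero and untreated controls; GI50 from variable-slope sigmoidal fit, reported as greater/less than range limits when not reached.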"}, "MCF10A [1]": {"tested_on": "MCF10A", "assay": "SRB antiproliferative/antigrowth assay, non-cancer cells", "in_short": "as §1"}, "MCF10A [2]": {"tested_on": "MCF10A", "assay": "LysoTracker Red staining of lysosomal volume, non-cancer cells", "details": "5 μM, 48 h", "description": "Since the structure of compound 13 contains the main scaffold of CQ, we examined whether cells treated with compound 13 also results an increase in the lysosomal volume.\nLysoTracker Red sDND-99 staining was carried out as recommended by the manufacturer (Molecular Probes, Eugene, OR). Briefly, cells grown on a cover slip were incubated in 50 nM LysoTracker Red DND-99 in serum-free RPMI-1640 medium for 30 min and then rinsed once with serum-free medium. The cells were washed three times with ice-cold medium, incubated in fresh medium for 45 min at 37 °C, and then washed once with fresh medium. Subsequently, the cells were examined by fluorescence microscopy using two filters (for green and red images) sequentially. Merging the two color images was done using Northern Eclipse software.\nSham treated Compound 13 (5 μ M), 48 h\n(VR23) in non- cancer MCF10A, in contrast to cancer cells (MCF7, HeLa). […]"}, "MCF7": {"tested_on": "MCF7", "assay": "SRB antiproliferative/antigrowth assay", "in_short": "as §1"}, "HeLa": {"tested_on": "HeLa", "assay": "Combination with bortezomib, cell death", "details": "48 h post-treatment; BTZ 6 nM, compound 13 0.75 µM, alone or combined"}}, "note": "Values joined by “and” are separate entries in the source; they are usually repeats but may differ in a detail not shown here. Equal values may be shown once. “Also recorded” adds a separate entry of the source.", "data": [{"molecule": "O=[N+]([O-])c1ccc(S(=O)(=O)N2CCN(c3ccnc4cc(Cl)ccc34)CC2)c([N+](=O)[O-])c1", "note": "[Compound 13, 7-Chloro-4-(4-(2,4-dinitrophenylsulfonyl)piperazin-1-yl)quinoline]", "values": [{"measurement": "mitotic cells with multiple centrosomes / multiple spindle phenotypes", "setting": "HeLa S3 cells", "result": "44% and 44.4%"}, {"measurement": "cell killing", "setting": "MCF7 cells", "result": "effectively killed MCF7 cells"}, {"measurement": "GI50", "setting": "184B5", "result": "9 ± 0.1", "unit": "µM"}, {"measurement": "GI50", "setting": "MCF10A [1]; Homo sapiens, MCF-10A, 48 h, read-out: GI50 MCF10A", "result": "12.3 ± 0.1", "unit": "µM"}, {"measurement": "higher concentration required for the same GI50 against non-cancer than cancer cells", "setting": "MCF10A [1]; MDA-MB468 vs MCF10A", "result": "up to 17.6 fold"}, {"measurement": "lysosomal volume", "setting": "MCF10A [2]", "result": "does not increase; also recorded: did not show the same degree of increase in lysosomal volume"}, {"measurement": "GI50", "setting": "MCF7; Homo sapiens, MCF7, 48 h, read-out: GI50 MCF7", "result": "2.3 ± 0.1", "unit": "µM"}, {"measurement": "more effective than cisplatin (MCF7)", "setting": "MCF7; ratio of GI50 values", "result": 11.1, "unit": "fold"}, {"measurement": "cell death", "setting": "HeLa", "result": "neither 6 nM BTZ nor 0.75 µM of compound 13 resulted in substantial HeLa cell death"}]}]}
